Test results as given in patent EP0355234A1, “Pyrazolopyridine derivatives as antiatherosclerotic and antihypercholesterolemic agents” (MERRELL DOW PHARMACEUTICALS INC., priority 1988, dated 1990).
Counter-ions that a name gives are not always drawn.

Tested on: Hypercholesterolemic Rabbit
Assay: Antiatherosclerotic and antihypercholesterolemic effects in the hypercholesterolemic (2% cholesterol diet) rabbit, six weeks of treatment
Type: in vivo, New Zealand white male rabbits
Conditions: mean ± standard deviation; for % of thoracic arota covered by plaque / Aortic arch cholesterol: 6 weeks treatment; for % of thoracic arota covered by plaque: Sudan Black stain, cut-weight planimetry, positive control Group 2: 70.57±9.54; for Aortic arch cholesterol: positive control Group 2: 15.82±4.64; for Serum Cholesterol: after 6 wks treatment, positive control Group 2: 2475±434
Description: Four groups of New Zealand white male rabbits (weighing 1-2 kg) were treated for six weeks according to the following treatment schedule [all injections were in volumes corresponding to 0.1 ml/kg subcutaneously (s.c.)]: • Group 1 maintained on normal rabbit chow; received polyethylene glycol 300 (PEG ) injection twice daily. • Group 2 (Positive Control) maintained on rabbit chow containing 2% by weight cholesterol; received PEG injection twice daily. • Group 3 maintained on rabbit chow containing 2% by weight cholesterol; received 4,7-dihydro-1,6-dimethyl-4-(2-methylphenyl)-3-(2-methylpropyl)-1H-pyrozolo[3,4-b]pyridine-5-carboxylic acid methyl ester monohydrochloride (compound 1A) at a dose of 1 mg/kg in PEG twice daily. • Group 4 maintained on rabbit chow containing 2% by weight cholesterol; received compound 1A at a dose of 10 mg/kg in PEG twice daily.
The body weight of each rabbit was measured weekly. At three week and six week intervals after the start of treatment, blood samples were obtained from each rabbit and determinations of platelet aggregation, serum cholesterol, triglycerides, electrolyte concentrations and hematological parameters were performed.
Six weeks after the start of treatment, the animals were sacrificed. Aortic arches and thoracic aortas were removed and were dissected free of extraneous tissues. The aortic arches were weighed, homogenized in isopropanol, and determinations of cholesterol, triglycerides and electrolyte concentrations were performed. Thoracic aortas were slit down the ventral surface and stained for lipoproteins and lipids by immersion for 5 min in Sudan Black according to the method of Gradwohl (Gradwohl's Clinical Laboratory Methods and Diagnosis (1980) Vol. 1, Edition 8, Chapter 25, pg 771; Sonnenwerth and Jarett, editors, The C.V. Mosby Company, St. Louis, Toronto, London). The percentage of luminal surface covered by atherosclerotic plaque was assessed by "cut-weight" planimetry of the projected image according to the method of Willis et al. (Arteriosclerosis 5, 250 (1985)) whereby the photographic image was projected at a magnification of 7 to 10 and the outer border of the tissue and the boundary between plaque and uninvolved tissue were traced and the appropriate areas were cut out and weighed.

[1] = Group 3: 1 mg/kg bid s.c. in PEG
[2] = Group 4: 10 mg/kg bid s.c. in PEG

COC(=O)C1=C(C)Nc2c(c(CC(C)C)nn2C)C1c1ccccc1C (stereo not drawn) [Compound 1A, 4,7-dihydro-1,6-dimethyl-4-(2-methylphenyl)-3-(2-methylpropyl)-1H-pyrozolo[3,4-b]pyridine-5-carboxylic acid methyl ester monohydrochloride]
% of thoracic arota covered by plaque [1]: 34.33±19.03 % | Aortic arch cholesterol [1]: 9.57±1.38 µg/mg wet wt. | Serum Cholesterol [1]: 1919 ± 345 mg/dL | % of thoracic arota covered by plaque [2]: 36.71±9.95 % | Aortic arch cholesterol [2]: 9.27±1.91 µg/mg wet wt. | Serum Cholesterol [2]: 1774 ± 300 mg/dL
